In the Deep4Chem optical property database:

Test: solvent given as SMILES

Row | Structure (SMILES) | emission maximum (in C1CCOC1) | emission maximum (in CO) | emission maximum (in CS(C)=O) | emission maximum (in ClCCl) | emission maximum (in CC#N) | emission maximum (in O) | other results
1 | O=C(/C=C/c1cn(-c2ccccc2)nc1-c1ccccc1)c1c(O)c2ccccc2oc1=O | 489 nm | 504 nm | 510 nm | 502 nm | – | – | emission maximum (in C1COCCO1): 482 nm; emission maximum (in CCO): 507 nm; emission maximum (in CCOC(C)=O): 487 nm; emission maximum (in CN(C)C=O): 505 nm; emission maximum (in Cc1ccccc1): 480 nm; emission maximum (in ClC(Cl)Cl): 493 nm
2 | CN(C)c1cc(-c2ccccc2)cc2ccccc12 | – | – | – | 422 nm | – | – | –
3 | c1cncc(-c2ccc(-c3c4ccc(-c5cccnc5)cc4c(-c4ccc(-c5cccnc5)cc4)c4ccc(-c5cccnc5)cc34)cc2)c1 | – | – | – | 443 nm | – | – | –
4 | Cc1cc(O)c(C(C)C)cc1/N=C/c1ccc(O)cc1 | 406 nm | 416 nm | 415 nm | 412 nm | 411 nm | 452 nm | emission maximum (in C1CCCCC1): 400 nm; emission maximum (in C1COCCO1): 405 nm; emission maximum (in CC(C)(C)O): 410 nm; emission maximum (in CC(C)O): 412 nm; emission maximum (in CCCCCC): 399 nm; emission maximum (in CCCCO): 414 nm; emission maximum (in CCO): 414 nm; emission maximum (in CCOC(C)=O): 405 nm; emission maximum (in CN(C)C=O): 409 nm; emission maximum (in ClC(Cl)Cl): 401 nm; emission maximum (in OCCO): 421 nm
5 | CN(C)c1cc2c(cc1F)c(=O)c1cc(F)c(N)cc1n2C | – | – | – | – | – | – | emission maximum (in CCO): 432 nm
6 | F[Si](c1ccccc1)(c1c2ccccc2cc2ccccc12)c1c2ccccc2cc2ccccc12 | 409 nm | – | – | – | – | – | –
7 | C=CC1CN2CCC1CC2[C@@H](OCc1ccccc1)c1ccnc2ccc(O)cc12 (stereo partly drawn) | 358 nm | – | – | 363 nm | 362 nm | – | emission maximum (in CCCC#N): 361 nm; emission maximum (in Cc1ccccc1): 355 nm
8 | CC1=N/C(=C\c2ccc(N(C)C)cc2)C(=O)N1C | 452 nm | 492 nm | 490 nm | 482 nm | 483 nm | 520 nm | emission maximum (in C1CCCCC1): 437 nm
9 | COc1cccc2cc(-c3cc4cccc(OC)c4oc3=O)oc12 | – | – | 488 nm | – | 488 nm | 504 nm | emission maximum (in CCOC(C)=O): 460 nm; emission maximum (in Cc1ccccc1): 448 nm
10 | C(=C\c1cccc2ccccc12)/c1ccc(-c2nnc(-c3ccc(-c4cc5ccccc5s4)cc3)o2)cc1 | – | 448 nm | 455 nm | – | 441 nm | – | emission maximum (in CC(C)=O): 437 nm; emission maximum (in CCCCCCCC): 426 nm; emission maximum (in CCCCCCCCCCO): 437 nm; emission maximum (in CCCCCCCCO): 436 nm; emission maximum (in CCCCCO): 438 nm; emission maximum (in CCCO): 441 nm; emission maximum (in CN(C)C=O): 447 nm
11 | CCc1c(C(=O)OC)c(C(=O)OC)c2ccc(-c3ccccc3)nn12 | – | – | – | – | – | – | emission maximum (in CCCCCC): 471 nm
12 | CNCCCN1c2ccccc2CCc2ccccc21 | – | 356 nm | – | – | 348 nm | 400 nm | –
13 | O=c1[nH]cc(F)c(=O)[nH]1 | – | – | – | – | 322 nm | – | –
14 | COc1cc2c(cc1OC)C1=C[C@H](c3ccc(Cl)cc3)C3(C(C#N)=C(C#N)N1CC2)c1cc(Br)ccc1-c1ccc(Br)cc13 | – | – | – | 420 nm | – | – | –
15 | Nc1ccc2c(-c3ccc(C(=O)CN4C(=O)CCC4=O)cc3C(=O)[O-])c3ccc(=[NH2+])c(S(=O)(=O)[O-])c-3oc2c1S(=O)(=O)[O-] | – | – | – | – | – | 519 nm | –
16 | C=Cc1cc2ccc(N(CC)CC)cc2oc1=O | – | – | – | – | 470 nm | – | –
17 | CCN(CC)c1ccc2cc(/C=C/C(=O)/C=C(O)/C=C/c3cc4ccc(N(CC)CC)cc4oc3=O)c(=O)oc2c1 | 568 nm | – | 621 nm | 593 nm | 609 nm | – | emission maximum (in C1COCCO1): 561 nm; emission maximum (in CC(C)=O): 598 nm; emission maximum (in CCOC(C)=O): 566 nm; emission maximum (in CN(C)C=O): 611 nm; emission maximum (in Cc1ccccc1): 542 nm; emission maximum (in ClC(Cl)Cl): 581 nm
18 | CCN(CC)c1ccc2c(c1)oc(=O)c1c(=O)oc3cc(Br)ccc3c12 | – | – | 572 nm | 540 nm | – | – | –
19 | NS(=O)(=O)c1ccc(N2N=C(c3ccc(O)cc3)CC2c2ccc(F)cc2)cc1 (stereo not drawn) | 417 nm | 430 nm | 424 nm | – | 417 nm | 448 nm | emission maximum (in C1COCCO1): 417 nm; emission maximum (in CC(C)O): 423 nm; emission maximum (in CCO): 427 nm; emission maximum (in CCOC(C)=O): 416 nm; emission maximum (in CN(C)C=O): 421 nm
